Laboratory results as given in patent US11324798B2, “Materials and methods for treatment of inflammation” (CYTOGEL PHARMA, LLC, priority 2010, dated 2022).
Where “and” joins values, the source holds several entries; their conditions need not be identical. Equal values may be shown once.

Tested on: CGRP release from isolated rat tracheae
Experiment: Electrical field stimulation (EFS)-evoked release of CGRP from isolated rat tracheae, radioimmunoassay
Assay type: cell-based
Conditions: for Release of CGRP into the incubation medium / Absolute release of CGRP: individual experiments 1-5; for Release of CGRP into the incubation medium, Mean / Absolute release of CGRP, Mean: mean of 5 experiments
Protocol: For the in vitro release experiments, a 10 mg/ml (14.62 mM; MW 684) stock solution of CYT-1010 was made in DMSO, which was further diluted with the oxygenated Krebs solution used in the organ bath: 5.5 μl of this CYT-1010 stock solution was added into 40 ml Krebs to make the highest applied 2 μM concentration of compound CYT-1010. Further dilutions to obtain the lower concentrations were prepared with Krebs solution.
The incubation media containing the respective CYT-1010 concentrations were administered in the stimulated and post-stimulated 8-min fractions.
Since even the highest, 2 μM, concentration of CYT-1010 solution contained negligible amount of DMSO, simple Krebs solution was used in the control experiments.
Rats were exsanguinated in deep anaesthesia (sodium thiobarbital, 50 mg/kg i.p.), then the whole trachea was removed and cleaned of fat and adhering connective tissues. Tracheae from two rats were placed into the same 1.8 ml organ bath to obtain sufficient amount of released peptide and perfused (1 ml/min) with pH-(7.2) controlled oxygenized Krebs solution for 60 minutes (equilibration period) at 37° C. temperature. After discontinuation of the flow, the solution was changed three times for eight minutes to produce pre-stimulated, stimulated, post-stimulated fractions.
Electrical field stimulation (40 V, 0.1 ms, 10 Hz for 120 s; 1200 pulses) was performed to elicit neurotransmitter release at the beginning of the second 8-minute period. Stimulation with 0.1 ms pulse width selectively activates very fast Na^+ channels, which are only present in the membrane of neural structures (Birmingham and Wilson, 1963; Coburn and Tomita 1973; Szolcsányi and Barthó, 1982); therefore, it excites nerve endings without influencing other excitable cells in the tracheae such as smooth muscle cells.
Krebs solution was used in the pre-stimulated fraction for determining the basal CGRP outflow. During the stimulated and post-stimulated fractions, the incubation medium contained the examined concentrations of CYT-1010 (10, 100, 500, 1000 and 2000 nM) in separate experiments, and only one concentration was applied to the same tracheae to avoid neuropeptide depletion. In each group, 5 experiments were performed in parallel in 5 perfusion systems to provide n=5 data per group (10 tracheae per group).
60 male Wistar rats (250-300 g) altogether were divided into 6 experimental groups: Group 1: controls (n=10); Group 2: 10 nM CYT-1010 (n=10); Group 3: 100 nM CYT-1010 (n=10); Group 4: 500 nM CYT-1010 (n=10); Group 5: 1000 nM CYT-1010 (n=10); and Group 6: 2000 nM CYT-1010 (n=10). The total study was performed on three experimental days, two groups every occasion.
Calcitonin gene-related peptide (CGRP) and substance P (SP) concentrations were determined from 400-400 μl samples of organ fluid of the preparations by means of radioimmunoassay methods described in Nemeth et al., 1996, 1998, 1999, 2006; Helyes et al., 1997, 2001, 2006; Borzsei et al., 2008). Each of these publications is incorporated herein by reference in its entirety.
The released amount of the peptides CGRP and SP was calculated as fmol peptide per mg wet tissue (trachea). The absolute release in response to EFS in each experiment was calculated by adding peptide release in the second and third 8-min fractions and then taking off the basal release measured in the first (pre-stimulated) fraction. The detection limits of the RIA assays were 0.2 fmol/tube and 2 fmol/tube for CGRP and SP, respectively.

## NC(Cc1ccc(O)cc1)C(=O)NC1CCCCNC(=O)C(Cc2ccccc2)NC(=O)C(Cc2c[nH]c3ccccc23)NC1=O [CYT-1010, H-Tyr-c-[D-Lys-Trp-Phe]]
10 nM
  Effect on CGRP release in the third, post-stimulated fraction: did not influence
  Absolute release of CGRP: 0.762 fmol/mg wet tissue and 0.650 fmol/mg wet tissue and 0.201 fmol/mg wet tissue and 0.001 fmol/mg wet tissue and 0.706 fmol/mg wet tissue
  Absolute release of CGRP, Mean: 0.464 fmol/mg wet tissue
10 nM, after stimulation
  CGRP release, % increase above baseline: 105.75%
10 nM, after stimulation (post-stimulated 8-min fraction)
  Release of CGRP into the incubation medium: 0.602 fmol/mg wet tissue and 0.730 fmol/mg wet tissue and 0.193 fmol/mg wet tissue and 0.204 fmol/mg wet tissue and 0.528 fmol/mg wet tissue
10 nM, after stimulation (post-stimulated fraction)
  Release of CGRP into the incubation medium, Mean: 0.451 fmol/mg wet tissue
10 nM, before stimulation
  CGRP release, % increase above baseline: 0.00%
10 nM, before stimulation (pre-stimulated 8-min fraction)
  Release of CGRP into the incubation medium: 0.220 fmol/mg wet tissue and 0.250 fmol/mg wet tissue and 0.146 fmol/mg wet tissue and 0.256 fmol/mg wet tissue and 0.226 fmol/mg wet tissue
10 nM, before stimulation (pre-stimulated fraction)
  Release of CGRP into the incubation medium, Mean: 0.219 fmol/mg wet tissue
10 nM, during stimulation
  CGRP release, % increase above baseline: 105.75%
10 nM, during stimulation (stimulated 8-min fraction)
  Release of CGRP into the incubation medium: 0.600 fmol/mg wet tissue and 0.420 fmol/mg wet tissue and 0.299 fmol/mg wet tissue and 0.308 fmol/mg wet tissue and 0.630 fmol/mg wet tissue
10 nM, during stimulation (stimulated fraction)
  Release of CGRP into the incubation medium, Mean: 0.451 fmol/mg wet tissue
100 nM, after stimulation
  CGRP release, % increase above baseline: 39.26%
100 nM, after stimulation (post-stimulated 8-min fraction)
  Release of CGRP into the incubation medium: 0.284 fmol/mg wet tissue and 0.135 fmol/mg wet tissue and 0.267 fmol/mg wet tissue and 0.231 fmol/mg wet tissue and 0.226 fmol/mg wet tissue
100 nM, after stimulation (post-stimulated fraction)
  Release of CGRP into the incubation medium, Mean: 0.229 fmol/mg wet tissue
100 nM, before stimulation
  CGRP release, % increase above baseline: 0.00%
100 nM, before stimulation (pre-stimulated 8-min fraction)
  Release of CGRP into the incubation medium: 0.243 fmol/mg wet tissue and 0.129 fmol/mg wet tissue and 0.128 fmol/mg wet tissue and 0.138 fmol/mg wet tissue and 0.183 fmol/mg wet tissue
100 nM, before stimulation (pre-stimulated fraction)
  Release of CGRP into the incubation medium, Mean: 0.164 fmol/mg wet tissue
100 nM, during stimulation
  CGRP release, % increase above baseline: 184.81%
100 nM, during stimulation (stimulated 8-min fraction)
  Release of CGRP into the incubation medium: 0.586 fmol/mg wet tissue and 0.281 fmol/mg wet tissue and 0.526 fmol/mg wet tissue and 0.390 fmol/mg wet tissue and 0.554 fmol/mg wet tissue
100 nM, during stimulation (stimulated fraction)
  Release of CGRP into the incubation medium, Mean: 0.468 fmol/mg wet tissue
100 nM
  Absolute release of CGRP: 0.384 fmol/mg wet tissue and 0.159 fmol/mg wet tissue and 0.538 fmol/mg wet tissue and 0.344 fmol/mg wet tissue and 0.415 fmol/mg wet tissue
  Absolute release of CGRP, Mean: 0.368 fmol/mg wet tissue
500 nM (maximal effect), 0.5 µM
  Inhibition of EFS-evoked absolute CGRP release: 69.9% and 70%
500 nM, after stimulation
  CGRP release, % increase above baseline: 48.89%
500 nM, after stimulation (post-stimulated 8-min fraction)
  Release of CGRP into the incubation medium: 0.137 fmol/mg wet tissue and 0.206 fmol/mg wet tissue and 0.267 fmol/mg wet tissue and 0.224 fmol/mg wet tissue and 0.213 fmol/mg wet tissue
500 nM, after stimulation (post-stimulated fraction)
  Release of CGRP into the incubation medium, Mean: 0.210 fmol/mg wet tissue
500 nM, before stimulation
  CGRP release, % increase above baseline: 0.00%
500 nM, before stimulation (pre-stimulated 8-min fraction)
  Release of CGRP into the incubation medium: 0.136 fmol/mg wet tissue and 0.148 fmol/mg wet tissue and 0.146 fmol/mg wet tissue and 0.118 fmol/mg wet tissue and 0.157 fmol/mg wet tissue
500 nM, before stimulation (pre-stimulated fraction)
  Release of CGRP into the incubation medium, Mean: 0.141 fmol/mg wet tissue
500 nM, during stimulation
  CGRP release, % increase above baseline: 70.52%
500 nM, during stimulation (stimulated 8-min fraction)
  Release of CGRP into the incubation medium: 0.162 fmol/mg wet tissue and 0.301 fmol/mg wet tissue and 0.304 fmol/mg wet tissue and 0.192 fmol/mg wet tissue and 0.241 fmol/mg wet tissue
500 nM, during stimulation (stimulated fraction)
  Release of CGRP into the incubation medium, Mean: 0.240 fmol/mg wet tissue
500 nM
  Absolute release of CGRP: 0.028 fmol/mg wet tissue and 0.212 fmol/mg wet tissue and 0.279 fmol/mg wet tissue and 0.181 fmol/mg wet tissue and 0.140 fmol/mg wet tissue
  Absolute release of CGRP, Mean: 0.168 fmol/mg wet tissue
1000 nM, 1 µM
  Inhibition of EFS-evoked absolute CGRP release: 66.3% and 66%
2000 nM
  Inhibition of EFS-evoked absolute CGRP release: 49.1%
1 microM, after stimulation
  CGRP release, % increase above baseline: 29.82%
1 microM, after stimulation (post-stimulated 8-min fraction)
  Release of CGRP into the incubation medium: 0.386 fmol/mg wet tissue and 0.162 fmol/mg wet tissue and 0.130 fmol/mg wet tissue (2×) and 0.121 fmol/mg wet tissue
1 microM, after stimulation (post-stimulated fraction)
  Release of CGRP into the incubation medium, Mean: 0.186 fmol/mg wet tissue
1 microM, before stimulation
  CGRP release, % increase above baseline: 00.0%
1 microM, before stimulation (pre-stimulated 8-min fraction)
  Release of CGRP into the incubation medium: 0.262 fmol/mg wet tissue and 0.135 fmol/mg wet tissue and 0.108 fmol/mg wet tissue (2×) and 0.102 fmol/mg wet tissue
1 microM, before stimulation (pre-stimulated fraction)
  Release of CGRP into the incubation medium, Mean: 0.143 fmol/mg wet tissue
1 microM, during stimulation
  CGRP release, % increase above baseline: 101.59%
